Results taken from BigSolDB 2.1.

CO[C@@]1(NC(=O)Cc2cccs2)C(=O)N2C(C(=O)O)=C(COC(N)=O)CS[C@@H]21
solubility (mole fraction)
Conditions	278.15 K	283.15 K	288.15 K	293.15 K	298.15 K	303.15 K	308.15 K
in acetonitrile	0.000452	0.000491	0.000528	0.00058	0.000621	0.000677	0.00076
in ethanol	0.000403	0.000484	0.000603	0.000739	0.000852	0.00103	0.00118
in ethyl acetate	0.000229	0.000241	0.000257	0.000267	0.000282	0.000296	0.00032
in isopropanol	4.4e-05	7.19e-05	0.000109	0.000151	0.000186	0.000243	0.000314
in methanol	0.00565	0.00658	0.00772	0.00919	0.011	0.0129	0.0149
in n-propanol	0.000209	0.000253	0.000286	0.000338	0.000394	0.000492	0.000561
